Values quoted from earlier work in US8568704B2, “Dermatological/pharmaceutical compositions comprising benzoyl peroxide, at least one naphthoic acid compound and at least one polyurethane polymer” (Galderma Research & Development, priority 2006, dated 2013).
Where two headings read alike, the source gives them in different places. Blank lines part the entries; values can stand above or below the compound they belong to.

Key:
[1] = in presence of benzoyl peroxide-based formulation
[2] = 40° C.

- tretinoin degraded ([1]; within 2 hours): 50%
- tretinoin degraded ([1]; within 24 hours): 95%
Structure (SMILES): CC1=C(/C=C/C(C)=C/C=C/C(C)=C/C(=O)O)C(C)(C)CCC1 [tretinoin]

- degradation of adapalene ([1]; for 24 hours): no degradation
Structure (SMILES): COc1ccc(-c2ccc3cc(C(=O)O)ccc3c2)cc1C12CC3CC(CC(C3)C1)C2 [adapalene, 6-[3-(1-adamantyl)-4-methoxyphenyl]-2-naphthoic acid]

Structure (SMILES): O=C(OOC(=O)c1ccccc1)c1ccccc1 [benzoyl peroxide]
- benzoyl peroxide degradation time ([2]; in ethanol): 29 days
- benzoyl peroxide degradation time ([2]; in propylene glycol): 53 days
